According to US5290576A, “Tert-butyloxycarbonyl-L-tyrosyl-peptidoglycan monomer and ^125 I-labeled derivative thereof, their preparation and use” (Pliva Farmaceutska, priority 1990, dated 1994):

What was measured:
[1] = test system: antibody-forming cells (plaque-forming cells, PFC) in the spleen of mice immunized with sheep erythrocytes (SRBC); experiment: Immunostimulating activity: plaque-forming cells in spleen of mice immunized with sheep erythrocytes (Jerne's technique); assay type: in vivo; conditions: for PFC, % (of Hanks' control): 200 μg i.v. on day +1, PFC on day +4, Hanks' control = 100; for PFC, mean (X) / PFC, range of individual values: 200 μg i.v. on day +1 after SRBC i.p., PFC in spleen on day +4
Method: The immunostimulating activity of Boc-Tyr-PGM was tested in mice immunized with sheep erythrocytes (sheep red blood cells, SRBC).
Mice (CBA or AKR), five per group, were immunized i.p. with sheep erythrocytes (1×10^8 SRBC) in Hanks' solution. One day later (on day +1), the control group of mice receiving i.v. Hanks' solution, whereas the test group of mice was given i.v. 200 μg of Boc-Tyr-PGM in Hanks' solution. As positive control, a group of mice was used, to which 200 μg of peptidoglycan monomer (PGM) in Hanks' solution was administered i.v. Four days later (on day +4), the number of antibody-forming cells (plaque-forming cells, PFC) was determined in the spleen by Jerne's technique (Jerne, N. K., Nordin, A. A., and Henry, C. (1963), The agar plaque tecnique for recognizing antibody producing cells, in: "Cell Bound Antibodies", p. 109, Wistar Institute Press, Philadelphia).

melanoma B-16 = experiment: Antitumor (antimetastatic) activity: lung metastases in mice inoculated with melanoma B-16; assay type: in vivo; conditions: for Inhibition % / Metastases %: counted on day 23; for Metastases %: Hanks' control = 100; for Number of metastases, mean (X): C57BL/6 mice, lung metastases counted on day 23
Method: The antitumor activity of Boc-Tyr-PGM was investigated in mice, inoculated with melanoma B-16.
Mice (C5 7 BL/6, male, 4 months old), five per group, were given i.v. each 1×10^5 cells of B-16 melanoma on day 0.
One group of mice was chosen as control and was not treated further in any manner. The mice in experimental groups were given i.v. each 1 mg of Boc-Tyr-PGM, according to the following protocol:
3rd group--days 3 and 7 (total 2 mg of Boc-Tyr-PGM)
Three mice groups, which received PGM (PLIVA) i.v. according to the same protocol, were chosen as the positive control.
Macroscopically detectable lung metastases were counted on day 23.

[2] = 1 mg i.v. on days 3 and 7 (total 2 mg)

| Substance | PFC, % (of Hanks' control) ([1]; AKR mice) | PFC, mean (X) ([1]; AKR mice) | PFC, range of individual values ([1]; AKR mice) | PFC, % (of Hanks' control) ([1]; CBA mice) | PFC, mean (X) ([1]; CBA mice) | PFC, range of individual values ([1]; CBA mice) | increased number of PFC in comparison with the control group ([1]; both mice strains (CBA, AKR), 200 μg i.v.) | effectiveness compared with the positive control peptidoglycan monomer ([1]; both tests (CBA, AKR)) | Inhibition % (melanoma B-16; 1 mg i.v. on day 3) | Metastases % (melanoma B-16; 1 mg i.v. on day 3) | Inhibition % (melanoma B-16; 1 mg i.v. on day 7) | Metastases % (melanoma B-16; 1 mg i.v. on day 7) | Inhibition % (melanoma B-16; [2]) | Metastases % (melanoma B-16; [2]) | Number of metastases, mean (X) (melanoma B-16; 1 mg i.v. on day 3) | Number of metastases, mean (X) (melanoma B-16; 1 mg i.v. on day 7) | Number of metastases, mean (X) (melanoma B-16; [2]) | inhibition rate of metastases, all treated mice groups (melanoma B-16; all treatment protocols (day 3, day 7, days 3 and 7)) | difference in inhibition rate between treatment periods and total doses (melanoma B-16; day 3 or 7, 1 mg on day 3 or total 2 mg on days 3 and 7) | antimetastatic effect compared with PGM (PLIVA) positive control (melanoma B-16; mouse, in vivo) |
| --- | --- | --- | --- | --- | --- | --- | --- | --- | --- | --- | --- | --- | --- | --- | --- | --- | --- | --- | --- | --- |
| tert-Butyloxycarbonyl-L-tyrosyl-peptidoglycan monomer [Boc-Tyr-PGM] | 150% | 55,974 | 31,730-68,670 | 157% | 295,866 | 257,600-304,266 | approximately 50% | comparable with the effect of the positive control | 38.7% | 61.3% | 41.9% | 58.1% | 43.6% | 56.4% | 7.6 ± 1.9 | 7.2 ± 4.0 | 7.0 ± 2.7 | 37.8%-43.6 | No significant difference in the inhibition rate | comparable to the effect of PGM (PLIVA) |
| GlcNAc-β-(1→4)MurNAc-L-Ala-D-iGln-[(L)-meso-A2 pm-(D)-amide-(L)-D-Ala-D-Ala] [PGM, reference compound] | 130% | 48,668 | 27,200-61,070 | 166% | 313,413 | 198,800-449,866 | – | – | 50.0% | 50.0% | 66.5% | 43.5% | 67.3% | 42.7% | 6.2 ± 4.4 | 5.4 ± 1.7 | 5.3 ± 1.7 | – | – | – |
